Patent US20150018301A1, “LRRK-2-Mediated Neuronal Toxicity” (THE JOHNS HOPKINS UNIVERSITY, priority 2009, published 2015)
pIC50: −log10 of the molar value.

How the values were obtained:
[1] = from literature; cited from earlier work
[2] = system: HSV-G2019S LRRK2 dopaminergic neurotoxicity; assay: HSV amplicon-based mouse model of LRRK2 dopaminergic neurotoxicity; assay type: in vivo; conditions: for loss of tyrosine hydroxylase-positive neurons induced by HSV-G2019S LRRK2: 2.5 mg per kg i.p. twice daily, 3 weeks, versus DMSO- and indirubin-injected controls
[3] = system: C. elegans expressing LRRK2 G2019S in DA neurons; assay: Transgenic nematode model of LRRK2 G2019S-induced DA neurodegeneration; assay type: in vivo, Caenorhabditis elegans; conditions: for worms with wild-type DA neurons (4 CEP and 2 ADE): 7-day-old worms, n=90, 48% with 1% DMSO; for rescue of DA neurodegeneration: 7 day-old worms
Procedure: Nematodes were maintained following the standard procedures. Brenner, S., 771 GENETICS 71-94 (1974). Isogenic worm strains expressing LRRK2, G2019S, UAXX [baInlX; Pdat-1::LRRK2 G2019S, Pdat-1::gfp] were generated via microinjection, integrated into the genome and out-crossed three times. Age-synchronized worms were obtained by treating gravid adults with 2% sodium hypochlorite and 0.5M NaOH to isolate embryos. Lewis, J. A., 48 METHODS CELL BIOL. 3-29 (1995). These embryos were treated with indicated concentrations of LRRK2 kinase inhibitors, which were dissolved in 1% DSMO, for 24 h. at 20° C. with gentle shaking. The worms were then washed and transferred into NGM plates seeded with OP50 bacteria, and incubated as 20° C. The six anterior DA neurons (4 CEP and 2 ADE neurons) of 30 animals/trial were examined for neurodegeneration when the animals were 7 days old. A total of 90 animals for each treatment were analyzed (3 trials of 30 animals/trial). […] See Hamamichi et al., 105(2) PROC. NATL. ACAD. SCI. USA 728-33 (2008); and Cao et al, 25 J. NEUROSCI. 3801-12 (2005). For each trial, 30 worms were transferred into a 2% agarose pad, immobilized with 2 mM levamisole, and analyzed using Nikon Eclipse E800 epifluorescence microscope equipped with Endow GFP HYQ filter cube (Chrom Technology, Rockingham, Vt.). Images were captured with a Cool Snap CCD camera (Photometrics, Tucson, Ariz.) driven by MetaMorph software (Universal Imaging, West Chester, Pa.).
To determine whether the LRRK2 kinase inhibitors protect against LRRK2-induced neurodegeneration in vivo, the LRRK2 kinase inhibitors were tested in the C. elegans model of LRRK2 G2019S-induced neurodegeneration described above. The DA transporter (dat-1) was used to direct expression of LRRK2 G2019S in DA neurons.

G2019S LRRK2 = G2019S LRRK2 (Homo sapiens, UniProt Q5S007, G2019S); assay: In vitro kinase assay: LRRK2-mediated phosphorylation of 4E-BP1; assay type: biochemical
G2019S LRRK2, sequence (Q5S007 whole entry G2019S): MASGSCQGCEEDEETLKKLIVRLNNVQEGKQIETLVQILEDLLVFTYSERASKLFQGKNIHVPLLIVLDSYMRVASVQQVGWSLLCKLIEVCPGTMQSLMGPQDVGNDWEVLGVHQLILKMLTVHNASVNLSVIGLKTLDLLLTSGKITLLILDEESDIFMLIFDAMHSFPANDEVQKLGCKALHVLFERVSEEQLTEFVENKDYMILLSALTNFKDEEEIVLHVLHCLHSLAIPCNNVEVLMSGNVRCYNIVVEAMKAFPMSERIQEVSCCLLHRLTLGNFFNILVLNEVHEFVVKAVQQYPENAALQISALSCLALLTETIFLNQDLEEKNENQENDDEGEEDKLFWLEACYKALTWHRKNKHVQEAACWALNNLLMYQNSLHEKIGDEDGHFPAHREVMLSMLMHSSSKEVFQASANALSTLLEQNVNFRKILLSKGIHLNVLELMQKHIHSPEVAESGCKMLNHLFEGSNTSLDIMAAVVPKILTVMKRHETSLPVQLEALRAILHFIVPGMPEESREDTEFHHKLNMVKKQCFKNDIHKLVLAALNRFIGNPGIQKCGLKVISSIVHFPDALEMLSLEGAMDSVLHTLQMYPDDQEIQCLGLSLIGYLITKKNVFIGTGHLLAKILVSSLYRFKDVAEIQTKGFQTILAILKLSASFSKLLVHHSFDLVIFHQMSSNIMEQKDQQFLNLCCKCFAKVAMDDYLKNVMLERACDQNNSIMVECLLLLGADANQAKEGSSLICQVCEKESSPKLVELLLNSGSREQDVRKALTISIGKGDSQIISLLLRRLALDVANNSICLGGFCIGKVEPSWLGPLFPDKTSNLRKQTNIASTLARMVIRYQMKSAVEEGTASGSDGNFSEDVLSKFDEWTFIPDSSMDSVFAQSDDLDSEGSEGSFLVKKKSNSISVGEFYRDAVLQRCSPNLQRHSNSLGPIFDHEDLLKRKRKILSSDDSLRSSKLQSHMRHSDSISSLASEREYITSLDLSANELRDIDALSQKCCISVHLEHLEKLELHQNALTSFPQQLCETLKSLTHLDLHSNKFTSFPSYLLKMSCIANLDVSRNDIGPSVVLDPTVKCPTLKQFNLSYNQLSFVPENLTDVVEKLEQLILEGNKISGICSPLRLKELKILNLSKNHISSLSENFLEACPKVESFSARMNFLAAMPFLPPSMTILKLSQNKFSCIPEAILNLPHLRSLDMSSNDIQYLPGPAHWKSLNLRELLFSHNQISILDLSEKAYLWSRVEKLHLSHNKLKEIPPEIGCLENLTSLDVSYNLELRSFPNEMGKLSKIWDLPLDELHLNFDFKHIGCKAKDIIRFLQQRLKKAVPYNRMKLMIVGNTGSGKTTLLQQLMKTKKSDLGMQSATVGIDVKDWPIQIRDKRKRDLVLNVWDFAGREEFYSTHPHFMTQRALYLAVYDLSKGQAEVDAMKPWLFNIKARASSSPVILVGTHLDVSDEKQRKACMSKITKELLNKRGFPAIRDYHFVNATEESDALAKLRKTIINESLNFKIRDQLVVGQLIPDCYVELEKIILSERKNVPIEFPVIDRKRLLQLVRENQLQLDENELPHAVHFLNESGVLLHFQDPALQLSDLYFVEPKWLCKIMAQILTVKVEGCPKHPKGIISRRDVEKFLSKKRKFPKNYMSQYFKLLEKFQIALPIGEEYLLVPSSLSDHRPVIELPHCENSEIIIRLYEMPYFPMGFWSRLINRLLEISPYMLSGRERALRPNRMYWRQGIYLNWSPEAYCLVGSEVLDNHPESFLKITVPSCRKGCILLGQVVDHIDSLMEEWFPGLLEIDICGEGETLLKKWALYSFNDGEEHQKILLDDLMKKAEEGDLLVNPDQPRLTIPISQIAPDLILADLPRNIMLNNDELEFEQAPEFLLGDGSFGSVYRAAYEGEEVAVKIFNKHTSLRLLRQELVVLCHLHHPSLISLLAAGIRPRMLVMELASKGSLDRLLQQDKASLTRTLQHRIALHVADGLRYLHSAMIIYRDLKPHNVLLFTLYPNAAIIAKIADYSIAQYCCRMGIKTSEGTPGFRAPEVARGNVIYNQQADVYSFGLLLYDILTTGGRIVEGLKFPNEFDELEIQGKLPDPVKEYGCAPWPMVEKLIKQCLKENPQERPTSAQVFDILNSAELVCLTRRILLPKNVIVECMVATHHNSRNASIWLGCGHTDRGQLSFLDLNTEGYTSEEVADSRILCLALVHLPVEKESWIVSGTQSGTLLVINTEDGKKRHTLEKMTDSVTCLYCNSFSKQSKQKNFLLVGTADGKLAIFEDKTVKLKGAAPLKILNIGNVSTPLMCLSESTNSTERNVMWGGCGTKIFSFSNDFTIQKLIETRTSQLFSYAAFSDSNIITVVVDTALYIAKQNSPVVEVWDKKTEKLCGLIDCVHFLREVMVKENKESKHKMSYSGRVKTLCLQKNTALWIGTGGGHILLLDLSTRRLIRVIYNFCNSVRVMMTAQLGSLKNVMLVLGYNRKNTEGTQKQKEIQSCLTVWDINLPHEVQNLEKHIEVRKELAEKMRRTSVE
Procedure: The GST-4E-BP1 expressing vector was generated using the Invitrogen Gateway LR Clonase System. Briefly, an entry clone containing the 4E-BP1 sequence was reacted with the destination vector, pDEST-15 in the presence of the LR clonase mixture. After the clonase reaction, the mixture was transformed into One Shot BL21 chemically competent E. coli. The transformed cells were grown on ampicillin containing LB agar plate for one day at 37° C. Colonies containing GST-4E-BP1 were isolated. For protein induction, 100 μM IPTG was added to 100 mL culture and incubated for 3 h at 30° C. After IPTG incubation, cells were collected by centrifugation at 3,000×g for 15 min. The pellet was lysed with sonication in the presence of lysis butter containing 0.5% TX-100, 50 mM Tris-HCl (pH 8.0), 100 mM NaCl, 0.5 mM EGTA, 5 mM MgCl2, 2 mM DTT, and complete protease inhibitors. The lysate was centrifugated at 15,000×g for 15 min and the supernatant was incubated with GSH-sepharose beads for 2 h at 4° C. After incubation, the beads were washed with PBS containing an additional 150 mM NaCl and 0.1% TX-100 three times. The protein was eluted with elution buffer containing Hepes (pH 8.0), 150 mM NaCl, 30% glycerol, and 30 mM glutathione. The eluted proteins were stored at −80° C.
The in vitro kinase assay was performed as previously described. West, A. B. et al. Parkinson's disease-associated mutations in leucine-rich repeat kinase 2 augment kinase activity. Proc Natl Acad Sci USA 102, 16842-16847 (2005). Recombinant LRRK2 and MBP or CST-4E-BP1 were combined before the kinase reaction. LRRK2 autophosphorylation is LRRK2 itself phosphorylation and MBP or GST-4E-BP1 phosphorylation is induced by LRRK2. After the kinase reaction, combined LRRK2 and MBP or GST-4E-BP1 were loaded on SDSPAGE and phosphorylated LRRK2 and MBP or GST-4E-BP1 could be detected separately an a single gel. Recombinant proteins and inhibitors were incubated at 30° C. in kinase assay buffer containing 20 mM Hepes (pH 7.4), 5 mM EGTA, and 20 mM β-glycerol phosphate. 0.5 μg MBP (Upstate) or 0.5 μg GST-4B-BP1, 50 μM ATP (Sigma), 20 mM MgCl2, and 1 μCi [γ-32P] ATP (PerkinElmer) was added after 5 min. The reaction was performed at 30° C. to reduce non-specific 32P incorporation for 15 min and terminated by the addition of 5×Laemmili sample buffer. The reactions were then heated at 70° C. for 10 min and resolved by 12% SDS-PAGE. Gels were stained by coomassie brilliant blue after fixation with 10% acetic acid and 40% methanol and then exposed to a Phosphoimager. Data were analyzed by ImageQuant 6.0 software.

LRRK2 WT = LRRK2 WT (Homo sapiens, UniProt Q5S007); assay: In vitro kinase assay: LRRK2 autophosphorylation; assay type: biochemical; conditions: for pIC50: Table 2, mean of three experiments; for LRRK2 autophosphorylation Average ± SEM: compound 16 μM, phosphorylation normalized to absence of compound, mean ± S.E.M. of three experiments; for effect on LRRK2 autophosphorylation: screen at 16 μM; for effect on WT LRRK2 autophosphorylation: dose-response
LRRK2 WT, sequence (Q5S007 whole entry): as the sequence (Q5S007 whole entry G2019S) above, with S2019G counted along it

SMILES	crossing of the blood-brain barrier [1]	loss of tyrosine hydroxylase-positive neurons induced by HSV-G2019S LRRK2 [2]	increase in ILB4-positive cells in striatum and substantia nigra pars compacta ([2]; G2019S LRRK2 mice, 2.5 mg/kg i.p. twice daily)	reduction in the density of tyrosine hydroxylase-positive fibers (striatum) ([2]; HSV-LRRK2 G2019S mice, 2.5 mg/kg i.p. twice daily)	worms with wild-type DA neurons (4 CEP and 2 ADE) ([3]; 10 μM)	worms with wild-type DA neurons (4 CEP and 2 ADE) ([3]; 25 μM)	rescue of DA neurodegeneration [3]	LRRK2-mediated phosphorylation of 4E-BP1 (G2019S LRRK2)	pIC50 (LRRK2 WT)	LRRK2 autophosphorylation Average ± SEM (LRRK2 WT)	effect on LRRK2 autophosphorylation (LRRK2 WT)	effect on WT LRRK2 autophosphorylation (LRRK2 WT)
O=C1Nc2ccc(I)cc2/C1=C/c1cc(Br)c(O)c(Br)c1 [Inhibitor 56, GW5074]	known to cross the blood-brain barrier	attenuated	prevented	rescued	66%	67%	protect worms from neurodegeneration	inhibited	6.06	4.6 ± 2.9 % of control	substantially inhibited	
O=C1Nc2ccccc2/C1=C1/Nc2ccccc2/C1=N\O [Inhibitor 70, Indirubin-3-monooxine]	known to cross the blood-brain barrier	attenuated						inhibited	5.76	6.0 ± 6.5 % of control	substantially inhibited	inhibited
Cc1ccc(NC(=O)c2cccc(N(C)C)c2)cc1NC(=O)c1ccc(O)cc1 [Inhibitor 53, ZM336372]							failed to rescue	did not inhibit				no effect
